Results published in patent US6133311A, “Method for preventing or treating elevated blood lipid level-related diseases by administering natural phenolic compounds” (priority 1998, dated 2000).

Tests used:
[1] = system: LDL receptor in the liver; settings: Farmer, J. A., et al. (1995), cited from earlier work; for plasma LDL cholesterol level: by enhancing the activity of LDL receptor in the liver
[2] = system: liver cells around the central vein; test: fatty liver: proportion of abnormal fat-containing cells in the liver of rabbits; assay type: in vivo, New Zealand White rabbits; settings: for A: Proportion of abnormal fat-containing liver cells (grade): 1% cholesterol diet plus 0.1% compound (Lovastatin 1 mg/kg), mean of grades 1+ to 4+, Control 3.2 ± 0.3; for microscopic features of the liver: FIGS. 2B and 2C, around the central vein
Protocol: (§1) 30 three-month-old male New Zealand White rabbits (Yeonam Horticulture and Animal Husbandry College, Korea), each weighing about 2.5 to 2.6 kg, were raised under a condition of temperature 20+2° C., relative humidity 55±5%, and photoperiod 12L/12D. The rabbits were divided into 5 groups and 5 groups of rabbits were fed with 5 different diets, i.e., RC4 diet (Oriental Yeast Co., Japan) containing 1% cholesterol (Control group, 1); 1% cholesterol plus 1 mg/kg Lovastatin® (Merck, U.S.A.) (Lovastatin® group, 2); 1% cholesterol plus 0.1% tannin (3); 1% cholesterol plus 0.1% gallic acid (4); and 1% cholesterol plus 0.1% ellagic acid (5), respectively. RC4 diet comprises 7.6% moisture, 22.8% crude protein, 2.8% crude fat, 8.8% crude ash, 14.4% crude cellulose and 43.6% soluble nitrogen-free substances. Tannin, gallic acid and ellagic acid were purchased from Sigma Chemical Co. (St. Louis, Mo.).
(§2) The rabbits were fed for 6 weeks while being allowed free access to the diets and water.
(Step 5) Prevention of Hepatic Diseases

[3] = system: main artery (arterial endothelium); test: analysis for fatty streak in the main artery of rabbits; assay type: in vivo, New Zealand White rabbits; settings: for Fatty streak (proportion of stained region to total arterial area): 1% cholesterol diet plus 0.1% compound (Lovastatin 1 mg/kg), Control 35 ± 14; for layer of macrophage-lipid complex on the arterial endothelium: FIGS. 1B and 1C, control: thick layer
Protocol: as §1, §2
(Step 3) Analysis for fatty streak in the main artery
The chest of each of the rabbits sacrificed in Step 2 was incised. The downward portion of the main artery from the site 1 cm above the aortic valve was cut out in a length of about 5 cm and the fat surrounding the main artery was removed. The main artery was incised in the middle along the longitudinal axis and pinned to a dish. The moist artery was photographed and, then, the staining of fatty streaks was carried out in accordance with the method of Esper, E., et al. (J. Lab. Clin. Med., 121, 103-110 (1993)) as follows.
A part of the incised main artery was washed three times with anhydrous propylene glycol for 2 min. and stained for 30 min. with a saturated solution of Oil Red O (ORO, Sigma Co.) dissolved in propylene glycol. Thereafter, the artery was washed twice with 85% propylene glycol for 3 min. to remove remaining staining solution and, then washed with physiological saline. The artery was photographed and the photograph was traced. The area of stained region (fatty streak region) was determined with an image analyzer (LEICA, Q-600, Germany) and its proportion (%) to the total arterial area was calculated.
FIGS. 1A, 1B and 1C show the arteries of the rabbits administered with 1% cholesterol (Control group); 1% cholesterol plus 1 mg/kg Lovastatin® (Lovastatin® group); 1% cholesterol plus 0.1% ellagic acid, respectively.

[4] = chemical analysis of blood of rabbits fed a high-cholesterol diet; assay type: in vivo, New Zealand White rabbits; settings: for TG (triglyceride): Control 56 ± 38; for TC (total cholesterol): Control 1143 ± 260
Protocol: Effect of Tannin, Gallic acid or Ellagic acid in an Animal
(Step 1) Administration of tannin, gallic acid or ellagic acid to rabbits
as §1, §2
(Step 2) Chemical Analysis of Blood
After six weeks, the rabbits were anesthetized with an intramuscular injection of ketamine (50 mg/kg) in the femoral region and sacrificed. A blood sample was taken from the heart of each rabbit, allowed to stand for 2 hours and centrifuged at 3,000 rpm for 15 minutes and the supernatant serum was separated and stored in a freezer before use.
The chemical analysis of blood was carried out by employing a blood chemical analyzer (CIBA Corning 550 Express, USA) to determine the changes in GOT, GPT, γGTP, total cholesterol, HDL-cholesterol and triglyceride levels.

[5] = rabbits, 1% cholesterol diet plus 0.1% compound (Lovastatin 1 mg/kg), 6 weeks

Row | Structure (SMILES) | plasma LDL cholesterol level [1] | A: Proportion of abnormal fat-containing liver cells (grade) ([2]; 6 weeks) | inhibition of the formation of fatty liver ([2]; 1% cholesterol diet, 6 weeks) | microscopic features of the liver [2] | Fatty streak (proportion of stained region to total arterial area) ([3]; 6 weeks) [%] | plaque formation in the endothelium of the main artery ([3]; 6 weeks) | layer of macrophage-lipid complex on the arterial endothelium ([3]; 6 weeks) | deposition of macrophages on the arterial endothelium ([3]; blood cholesterol level high) | effect on the liver function (adverse) ([4]; rabbit, in vivo) | TG (triglyceride) [4, 5] [mg/dL] | TC (total cholesterol) [4, 5] [mg/dL] | lipid metabolism and liver function ([4]; rabbits, 6 weeks) | side effects [1] | γGTP ([4]; rabbits, 1% cholesterol diet plus 0.1% compound (Lovastatin 1 mg/kg), 6 weeks, Control 4.2 ± 0.9) [IU/l] | GPT ([4]; rabbits, 1% cholesterol diet plus 0.1% compound (Lovastatin 1 mg/kg), 6 weeks, Control 65 ± 9) [IU/l] | GOT ([4]; rabbits, 1% cholesterol diet plus 0.1% compound (Lovastatin 1 mg/kg), 6 weeks, Control 77 ± 8) [IU/l]
1 | CCC(C)(C)C(=O)O[C@H]1C[C@@H](C)C=C2C=C[C@H](C)[C@H](CC[C@@H]3C[C@@H](O)CC(=O)O3)[C@H]21 [Simvastatin®] | may reduce the plasma LDL cholesterol level | – | – | – | – | – | – | – | – | – | – | – | – | – | – | –
2 | O=c1oc2c(O)c(O)cc3c(=O)oc4c(O)c(O)cc1c4c23 [Ellagic acid, ellagic acid] | – | 2.7 | significantly inhibit the formation of fatty liver | almost all liver cells are of a normal shape | 9 ± 2 | inhibit | no or very thin layers of macrophage-lipid complex | strongly inhibit | do not adversely affect on the liver function | 25 ± 10 | 1000 ± 105 | can improve | – | – | – | –
3 | CC[C@H](C)C(=O)O[C@H]1C[C@@H](C)C=C2C=C[C@H](C)[C@H](CC[C@@H]3C[C@@H](O)CC(=O)O3)[C@H]21 [Lovastatin®, reference compound] | may reduce the plasma LDL cholesterol level | 3.4 ± 0.5 | – | many cells containing excessive fat were observed around the central vein | 5 | – | no or very thin layers of macrophage-lipid complex | – | – | 66 ± 17 | 1210 ± 263 | – | increase in creatine kinase in the liver and rhabdomyolysis | 12.4 ± 0.8 | 73 ± 9 | 125 ± 19
